The text below walks through data of paper PMC12442081, “Combating Fuel Biocontamination: Tailored Antimicrobial Peptides and an Innovative Delivery Strategy” (ACS Applied Bio Materials, 2025).

Where only a bound is given, the exact number is not on record here.

For test [1], the system named is Bacillus licheniformis (BL) ATCC 14580. Format: cell-based. The note with it: ATCC 14580. The essentials:
(§1)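 Bacteria grown overnight at 37 °C in LB, subcultured to mid-log, then adjusted to 5 × 10^5 CFU/mL and mixed with equal volumes of serially diluted peptide. After overnight incubation at 37 °C in ambient air, MIC was the lowest concentration inhibiting growth by plate-reader measurement; mean of triplicates.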

Test [2] deals with Roseomonas mucosa (RM) ATCC BAA-692. In kind it is cell-based. The gist of the method: as §1
Test [3] deals with Sphingomonas paucimobilis (SP). Format: cell-based. The gist of the method:
as §1

Test [4] relates to BL+DN coculture. In kind it is cell-based, B. licheniformis + D. nishinomiyaensis. As for the experimental part:
(§2) All of the bacterial species were grown overnight at 37 °C in LB broth. 10^7 CFU/mL of cells were resuspended in fresh culture and grown until the mid log phase. , The bacterial cells were adjusted to a concentration of 5 × 10^5 CFU/mL to quantify the MIC. Equal volumes of the respective bacterial cultures were incubated with the serially diluted peptides in 96-well microtiter plate and incubated overnight at 37 °C in ambient air. Microorganisms without peptides were treated as the positive control, while uninoculated broth was used as the negative control. The MIC was taken as the lowest peptide concentration at which observable bacteria growth was inhibited, as measured by a microplate reader (Biotek Synergy H1 microplate reader). Experiments were performed in triplicates, and the mean MIC values were determined. A similar study was performed to understand the effect of peptide purity, i.e., ranging from 70 to 95%, on the peptide MIC. […]
(§3) fresh medium at equal proportions (v/v). Multiple combinations of microbial cocultures were prepared […]
(§4) Table S2. Schematic representation of the microbial cocultures grown in lab.
(§5) Bacterial clusters Fungal clusters
(§6) Gram-positive Gram-negative
(§7) Actinobacteria/DN Firmicutes/BL Proteobacteria/SP Ascomycota/HR […]
(§8) (b) The three upper panels […]
(§9) controlling the growth of microbial cocultures.

Test [5] deals with SP+BL coculture. Format: cell-based, S. paucimobilis + B. licheniformis. As for the experimental part: as §2, §3, §4, §5, §6, §7, §8, §9
The subject of test [6] is DN+SP coculture. In kind it is cell-based, D. nishinomiyaensis + S. paucimobilis. As for the experimental part: as §2, §3, §4, §5, §6, §7, §8, §9
The test system of test [7] is HR+SP coculture. In kind it is cell-based, H. resinae + S. paucimobilis. The protocol: as §2, §3, §4, §5, §6, §7, §8, §9
Test [8] concerns HR+DN coculture. In kind it is cell-based, H. resinae + D. nishinomiyaensis. The protocol:
as §2, §3, §4, §5, §6, §7, §8, §9

In test [9] the test system is HR+BL coculture. In kind it is cell-based, H. resinae + B. licheniformis. As for the experimental part:
as §2, §3, §4, §5, §6, §7, §8, §9

Test [10] relates to HR+BL+SP coculture. In kind it is cell-based, H. resinae + B. licheniformis + S. paucimobilis. As for the experimental part:
as §2, §3, §4, §5, §6, §7, §8, §9

The test system of test [11] is HR+BL+DN coculture. Format: cell-based, H. resinae + B. licheniformis + D. nishinomiyaensis. The protocol:
as §2, §3, §4, §5, §6, §7, §8, §9

Test [12] deals with HR+DN+SP coculture. In kind it is cell-based, H. resinae + D. nishinomiyaensis + S. paucimobilis. As for the experimental part: as §2, §3, §4, §5, §6, §7, §8, §9
The test system of test [13] is B. licheniformis. In kind it is cell-based, Bacillus licheniformis. The note with it: 2 h. The protocol:
(§10) The stability of the peptides against one Gram-positive (B. licheniformis) and Gram-negative (S. paucimobilis) bacteria was assessed by determining their MIC in chymotrypsin (protease), serum, and salt (NaCl). The experiments were adopted from Selvarajan et.al. The fold change in MIC with respect to the control was calculated and determined for each peptide against the microbial clusters.
(§11) To determine the susceptibility of the engineered peptides, which are abundant in Trp, to protease degradation, chymotrypsin, which cleaves Tyr, Phe, and Trp at physiological pH was chosen as the model protease. The protocol described by Wang et.al. (2014) was used with slight modifications. Peptides were incubated with chymotrypsin at a molar ratio of 40:1 (peptide: protease) in 10 mM PBS buffer (pH7.4) at 37 °C, and samples were analyzed after 2 h. The enzyme reaction was terminated by incubating the samples at 80 °C for 10 min. The incubated peptide mixtures were then serially diluted in 96-well plates to determine the MIC values of the microbial strains.
(§12) The stability of the peptides in the presence of the serum was tested using a 10% fetal bovine serum (heat inactivated).
(§13) We also studied the effects of 600 mM NaCl (in vitro) and natural seawater (NSW) on the MICs of the engineered peptides.

Test [14] concerns S. paucimobilis. Format: cell-based, Sphingomonas paucimobilis. The following applies: 2 h. As for the experimental part:
as §10, §11, §12, §13

Test [15] has as its system Dermacoccus nishinomiyaensis (DN) ATCC 29093. In kind it is cell-based. The gist of the method: as §1
Test [16] deals with Kocuria rosea (KR) ATCC 186. In kind it is cell-based. The essentials:
as §1

Test [17] deals with Macrococcus caseolyticus (MC) ATCC 13548. Format: cell-based. The essentials:
as §1

For test [18], the system named is Micrococcus yunnanensis (MY) ATCC 12698. In kind it is cell-based. The gist of the method: as §1
Test [19] has as its system Pseudomonas aeruginosa (PA) ATCC 39327. In kind it is cell-based. The note with it: ATCC 39327. The essentials:
as §1

The test system of test [20] is Hormoconis resinae (HR) ATCC 20267. In kind it is cell-based. As for the experimental part:
All of the bacterial species were grown overnight at 37 °C in LB broth. 10^7 CFU/mL of cells were resuspended in fresh culture and grown until the mid log phase. , The bacterial cells were adjusted to a concentration of 5 × 10^5 CFU/mL to quantify the MIC. Equal volumes of the respective bacterial cultures were incubated with the serially diluted peptides in 96-well microtiter plate and incubated overnight at 37 °C in ambient air. Microorganisms without peptides were treated as the positive control, while uninoculated broth was used as the negative control. The MIC was taken as the lowest peptide concentration at which observable bacteria growth was inhibited, as measured by a microplate reader (Biotek Synergy H1 microplate reader). Experiments were performed in triplicates, and the mean MIC values were determined. A similar study was performed to understand the effect of peptide purity, i.e., ranging from 70 to 95%, on the peptide MIC.
The same experimental procedures that were conducted for the antibacterial assay were used to determine the MIC of the peptides against the fungal strain, H. resinae.

Broadly, the MIC is the lowest concentration that inhibits growth of the organism. `CC[C@H](C)[C@H](N)C(=O)N[C@@H](CC(C)C)C(=O)N1CCC[C@H]1C(=O)N[C@@H](Cc1c[nH]c2ccccc12)C(=O)N[C@@H](CCCCN)C(=O)N[C@@H](Cc1c[nH]c2ccccc12)C(=O)N1CCC[C@H]1C(=O)N[C@@H](Cc1c[nH]c2ccccc12)C(=O)N[C@@H](Cc1c[nH]c2ccccc12)C(=O)N1CCC[C@H]1C(=O)N[C@@H](Cc1c[nH]c2ccccc12)C(=O)N[C@@H](CCCCN)C(=O)N[C@@H](CCCNC(=N)N)C(=O)O` [P3]: the MIC in test [1] turned out to be 1.9 µM; in test [2] it was 1.9 µM; in test [3] it was 1.9 µM; in [4] it was 30 µM; in [5] it was 1.87 µM; in test [6] it was 3.7 µM. Moreover, the minimum inhibitory concentration (MIC) in test [7] is recorded as 0.9 µM; in [8], 0.9 µM; in test [9], 0.9 µM; in test [10] it was 3.7 µM; in test [11] it was 7.5 µM; in [12], 15 µM. The “MIC under different treatments” value in test [13] and in test [14] was at most 4 µM throughout.

With `CC[C@H](C)[C@H](N)C(=O)N[C@@H](CC(C)C)C(=O)N[C@@H](Cc1ccc(O)cc1)C(=O)N[C@@H](Cc1c[nH]c2ccccc12)C(=O)N[C@@H](CCCCN)C(=O)N[C@@H](Cc1c[nH]c2ccccc12)C(=O)N1CCC[C@H]1C(=O)N[C@@H](Cc1c[nH]c2ccccc12)C(=O)N[C@@H](Cc1c[nH]c2ccccc12)C(=O)N1CCC[C@H]1C(=O)N[C@@H](Cc1c[nH]c2ccccc12)C(=O)N[C@@H](CCCNC(=N)N)C(=O)N[C@@H](CCCNC(=N)N)C(=O)O` [P17], the MIC in test [1] was found to be 0.9 µM; in [15] it was 0.9 µM; in test [16], 1.9 µM; in test [17] it was 1.9 µM; in test [18] it was 0.9 µM; in [19], 3.8 µM. Moreover, the MIC in [3] stood at 0.9 µM; in test [20] it was 3.8 µM; in test [4] it was 1.87 µM; in test [5] it was 7.5 µM; in test [6], 15 µM; in test [7], 7.5 µM. The MIC in test [8] was found to be 0.9 µM; in [9] it was 7.5 µM; in test [10], 0.9 µM; in test [11], 0.9 µM; in test [12], 7.5 µM. Moreover, the “MIC under different treatments” value in [13] and in test [14] was at most 4 µM each time.
